Test results from PubChem BioAssay (NCI).
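In this assay, cells in 96-well plates receive the compound at five concentrations for 48 hours. Endpoints are linearly interpolated between the surrounding concentrations. At the TGI there is no net growth.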

What was measured:
Assay in all cases: NCI anticancer screen, dose series, 48 h
SK-OV-3 ovarian = tested on: SK-OV-3 ovarian
786-0 renal = tested on: 786-0 renal
HL-60(TB) leukemia = tested on: HL-60(TB) leukemia
U251 CNS = tested on: U251 CNS
TK-10 renal = tested on: TK-10 renal
OVCAR-4 ovarian = tested on: OVCAR-4 ovarian
SK-MEL-2 melanoma = tested on: SK-MEL-2 melanoma
NCI-H23 lung = tested on: NCI-H23 lung
SK-MEL-28 melanoma = tested on: SK-MEL-28 melanoma
LOX IMVI melanoma = tested on: LOX IMVI melanoma
SW-620 colon = tested on: SW-620 colon
MALME-3M melanoma = tested on: MALME-3M melanoma
NCI-H522 lung = tested on: NCI-H522 lung
SN12C renal = tested on: SN12C renal
UACC-62 melanoma = tested on: UACC-62 melanoma
MOLT-4 leukemia = tested on: MOLT-4 leukemia
HOP-92 NSCLC = tested on: HOP-92 NSCLC
MDA-MB-435 = tested on: MDA-MB-435
MCF7 breast = tested on: MCF7 breast

| Structure (SMILES) | TGI (SK-OV-3 ovarian) [µM] | TGI (786-0 renal) [µM] | TGI (HL-60(TB) leukemia) [µM] | TGI (U251 CNS) [µM] | TGI (TK-10 renal) [µM] | TGI (OVCAR-4 ovarian) [µM] | TGI (SK-MEL-2 melanoma) [µM] | TGI (NCI-H23 lung) [µM] | TGI (SK-MEL-28 melanoma) [µM] | TGI (LOX IMVI melanoma) [µM] | TGI (SW-620 colon) [µM] | TGI (MALME-3M melanoma) [µM] | TGI (NCI-H522 lung) [µM] | TGI (SN12C renal) [µM] | TGI (UACC-62 melanoma) [µM] | TGI (MOLT-4 leukemia) [µM] | TGI (HOP-92 NSCLC) [µM] | TGI (MDA-MB-435) [µM] | TGI (MCF7 breast) [µM] |
| --- | --- | --- | --- | --- | --- | --- | --- | --- | --- | --- | --- | --- | --- | --- | --- | --- | --- | --- | --- |
| CCOc1ccccc1NC(=O)CSc1nnc(Cc2ccccc2)o1 | > 100 | 44.8 | > 100 | 41 | > 100 | 63.5 | 63 | 52.1 | > 100 | 40 | 37.2 | 33.8 | 40.7 | 64.9 | 52.6 | 71.3 |  |  |  |
| COc1ccc2c(c1)CC[C@@H]1C2CC[C@]2(C)C(=N\O)/C(=N/O)CC12 (some centres not stated) | 32.6 | 31.8 | 35.7 | 28.7 | 41.2 |  | 26.9 | 23.1 |  | 6.11 | 40.2 | 32.5 | 11.5 | 36.5 | 26.6 | 21.1 | 30.6 |  |  |
| CC1(OCc2ccccc2)C(=O)N2C1N(C(=O)OCc1ccccc1)CC2(C)C (configuration not stated) |  | > 100 | 90.5 | > 100 | > 100 | > 100 | > 100 | > 100 | > 100 | > 100 | > 100 | > 100 |  | > 100 | > 100 | 77.4 |  |  |  |
| Cn1c(=O)c2c(nc(N3CCOCC3)n2CCCNCC(O)c2ccc(O)c(O)c2)n(C)c1=O (configuration not stated) | > 100 | > 100 |  | > 100 | > 100 | > 100 | > 100 | > 100 | > 100 | > 100 | > 100 | > 100 | > 100 | > 100 | > 100 | > 100 | > 100 | > 100 | > 100 |
| Cc1ccc([N+]2=NC(c3ccc([N+](=O)[O-])cc3)=NN(c3ccccc3)C2)cc1 |  | > 100 | > 100 | > 100 | > 100 | 49 |  | > 100 | > 100 | > 100 | > 100 | > 100 | 39 | > 100 |  | > 100 |  |  |  |
| ClCCN(CC#CCCCC#CCN(CCCl)CCCl)CCCl | 27.8 | 20.7 | 7.18 | 23.8 | 41 | 61.2 | 23.4 | 29.3 | 38.6 | 20.9 | 23.3 | 32.5 | 21.7 | 21.2 | 20 | 6.59 | 43.1 |  | 37.5 |
| CC(C)NC1CCCCC2c3cc(F)ccc3[C@]12O (some centres not stated) | > 100 | > 100 | > 100 | > 100 | > 100 | > 100 | > 100 | > 100 | > 100 | > 100 | > 100 | > 100 | > 100 | > 100 | > 100 | > 100 |  |  |  |
| COc1cc(C(=O)O)cc2c1[nH]c1ccccc12 | > 25 | > 25 | > 25 | > 25 | > 25 | > 25 | > 25 |  | > 25 | > 25 | > 25 | > 25 | > 25 | > 25 | > 25 | > 25 | > 25 |  |  |
| CC(=O)OC1COC(n2c(O)c(N=Nc3ccc([N+](=O)[O-])cc3)c3cc(Br)c([N+](=O)[O-])cc32)C(OC(C)=O)C1OC(C)=O (configuration not stated) | > 100 | > 100 | > 100 | > 100 | > 100 | > 100 | > 100 | > 100 | > 100 | > 100 | > 100 | > 100 | > 100 | > 100 | 36.6 | > 100 | 78 |  |  |
| CCN1C(=O)/C(=C\c2coc3ccccc3c2=O)SC1=S | > 100 | > 100 | > 100 | > 100 | > 100 | > 100 | > 100 | > 100 | > 100 | > 100 | > 100 | > 100 | > 100 | > 100 | > 100 | > 100 | > 100 |  |  |
| CC(/C=C/c1ccccc1)=N\N=C(C)\C=C\c1ccccc1 | > 100 | > 100 | > 100 | > 100 | > 100 | > 100 | > 100 | > 100 | > 100 | > 100 | > 100 | > 100 | > 100 | > 100 |  | > 100 |  |  |  |
| CC(SC(=S)N(C)C)C(=O)Nc1nnc(-c2ccc(Cl)cc2)o1 (configuration not stated) | > 100 | 69.7 |  | > 100 | > 100 | > 100 | > 100 | > 100 | > 100 | 33.8 | > 100 | > 100 |  | > 100 | > 100 | 8.28 | > 100 | > 100 | > 100 |
